Data published in patent US10702572B2, “Methods and compounds to suppress viral genome release and packaging” (Carnegie Mellon University, priority 2015, dated 2020).
pEC50: −log10 of the molar value.

Assays:
[1] = test system: HSV-1, strain DM2.1 (a resistant isolate); test: Plaque reduction assay in HFF cells; format: cell-based; details: Human alphaherpesvirus 1, HFF
Experimental: (§1) E-377 and DM2.1 strains of HSV-1 as well as the MS strain of HSV-2 were a gift of Jack Hill (Burroughs Wellcome). HCMV strain AD169 and VZV strain Ellen were obtained from the American Type Culture Collection (ATCC, Manassas, Va.).
(§2) Monolayers of HFF cells were prepared in six-well plates and incubated at 37° C. for 2 d to allow the cells to reach confluency. Media was then aspirated from the wells and 0.2 ml of virus was added to each of three wells to yield 20-30 plaques in each well. The virus was allowed to adsorb to the cells for 1 h and the plates were agitated every 15 minutes. Compounds were diluted in assay media consisting of MEM with Earl's salts supplemented with 2% FBS, L-glutamine, penicillin, and gentamycin. Solutions ranging from 300 μM to 0.1 μM were added to duplicate wells and the plates were incubated for various times, depending on the virus used. For HSV-1 and -2, the monolayers were then stained with 1% crystal violet in 20% methanol and the unbound dye removed by washing with dH2O. For all other assays, the cell monolayer was stained with 1% Neutral Red solution for 4 h then the stain was aspirated and the cells were washed with PBS. For all assays, plaques were enumerated using a stereomicroscope and the concentration of compound that reduced plaque formation by 50% (EC50) was interpolated from the experimental data.

in vitro = details: human
HCMV, strain AD169 = test: Plaque reduction assay in HFF cells; format: cell-based; details: for pEC50: reduces viral replication by 50%; for EC90: reduces viral replication by 90%
Experimental: as §1, §2

HSV-1, strain E-377 = test: Plaque reduction assay in HFF cells; format: cell-based; details: Human alphaherpesvirus 1, HFF; for pEC50: concentration that reduces viral replication by 50%, various trials, each with its control; for EC90: concentration that reduces viral replication by 90%
Experimental: as §1, §2

cell membrane = details: when complexed with free DNA; cited from earlier work
[2] = Parallel cytotoxicity assay in uninfected HFF cells; details: human
DNA [3] = test: DNA condensation, internal experimental observations, dint; format: biochemical
DNA [4] = details: literature values; cited from earlier work
phage λ = test: Intracapsid DNA transition temperature by ITC and SAXS; set-up: species or system bacteriophage λ; details: for DNA transition temperature T*: WT DNA phage λ
Text: WT bacteriophage λ cI857, with a genome length of 48.5 kb was produced by thermal induction of lysogenic E. coli strain AE1 derived from the 52773 strain. Two phage λ mutants with shorter genome lengths (78 and 94% of the WT DNA length) were produced using a similar procedure. The receptor was the LamB protein purified from pop 154, a strain of E. coli K12 in which the LamB gene has been transduced from Shigella sonnei 3070. Phage and LamB purification details are described in Evilevitch A., et al., Osmotic pressure inhibition of DNA ejection from phage. Proc. Natl. Acad. Sci. U.S.A. 2003; 100:9292-9295 and Ivanovska I., et al., Internal DNA pressure modifies stability of WT phage. Proc. Natl. Acad. Sci. U.S.A. 2007; 104:9603-9608.
All calorimetric measurements were performed using the MicroCal iTC200 system manufactured by GE Healthcare, Life Sciences. […] J. Mol. Biol. 2010; 395:1079-1087.
Small angle X-ray scattering (SAXS) measurements were carried out at the 12-ID B station at the Advanced Photon Source at Argonne National Laboratory. A 12-KeV X-ray beam was used to illuminate the sample with an overall scattering vector q range from 0.006 to 0.850 Å-1. A total of 120 μl of phage solution (˜5×1013 pfu/ml) was injected into a flow-through glass capillary and the solution was oscillated during the SAXS measurement with a flow rate of 10 μl/s. Forty scans with 1 s X-ray exposure time were collected and averaged for each sample. A buffer solution of the dialysis buffer for phage samples was measured using the same SAXS setup, which was further subtracted as the background. After the background subtraction, the scattered intensity I versus q was plotted and the DNA peak region was truncated from 0.18 Å-1 to 0.33 Å-1. This DNA diffraction peak was fitted with a Gaussian curve plus a linear background using function (1), where q0 is the peak center, w is the peak width, A0 is the peak area, k is the slope of the linear background and c is the offset.
[formula] […] Single-Molecule Fluorescence Measurements of Phage Ejection Ensemble Kinetics.
ITC and SAXS assays were used to determine DNA transition temperatures for WT λ-DNA length phage in MgCl2 Tris-buffer with MgCl2 concentrations varied between 5 and 50 mM, see FIGS. 3A-3C. The intracapsid DNA transition occurs at temperature T*, corresponding to either a discontinuity in the linear dependence of ΔHej on temperature (FIG. 3A) or to an abrupt change in the linear decay of the DNA diffraction peak area versus temperature measured by SAXS (FIG. 3B). DNA transition temperatures as a function of Mg-concentration determined by both techniques are in good agreement with each other and are summarized in FIG. 3C. […] However, the inventors have previously shown that at DNA packing density in phage λ, the screening effect of Mg-ions will become progressively smaller with increasing Mg-concentration due to the counter-ion saturation (Evilevitch A., et al., Effects of salt concentrations and bending energy on the extent of ejection of phage genomes. Biophys. J. 2008; 94:1110-1120). Furthermore, if the Mg ion concentration continues to increase, the counterions are forced into regions on the helices that begin to increase the effective repulsions between packaged DNA strands. […]

[5] = CC50, parallel to HSV-1 DM2.1 assay
[6] = Human betaherpesvirus 5, AD169, HFF
[7] = CC50, parallel to HCMV AD169 assay
[8] = CC50, parallel to HSV-1 E-377 assay, reduces cell viability by 50%

## Nc1ccn(C[C@@H](CO)OCP(=O)(O)O)c(=O)n1 [Cidofovir, reference compound]
[1]
  pEC50: 5.58
  EC90: > 150 µM
In vitro; [5]
  CC50: > 150 µM

## NCCCN(CCCN)CCCCN(CCCN)CCCN [DAB-Am-4, Polypropylenimine tetramine dendrimer, generation 1,1,4-diaminobutane core, generation 1 solution]
HCMV, strain AD169; [6]
  pEC50: 6.29
  EC90: 3.11 µM
[1]
  pEC50: < 4.72
  EC90: > 19 µM
HSV-1, strain E-377
  pEC50: 6.32
  EC90: 3.49 µM
Cell membrane
  permeation of cell membranes: permeate cell membranes when complexed with free DNA
[2]; [7]
  CC50: 15.4 µM
[2]; [5]
  CC50: 28.6 µM
[2]; [8]
  CC50: 38.1 µM

## NCCCN(CCCN)CCCN(CCCCN(CCCN(CCCN)CCCN)CCCN(CCCN)CCCN)CCCN(CCCN)CCCN [DAB-Am-8, Polypropylenimine octaamine Dendrimer, generation 2.0,1,4-diaminobutane core]
HCMV, strain AD169; [6]
  pEC50: 7.10
  EC90: > 3.8 µM
[1]
  pEC50: 7.00
  EC90: > 3.8 µM
HSV-1, strain E-377
  pEC50: 7.05
  EC90: > 3.8 µM
Cell membrane
  permeation of cell membranes: permeate cell membranes when complexed with free DNA
[2]; [7]
  CC50: 4.41 µM
[2]; [5]
  CC50: 9.32 µM
[2]; [8]
  CC50: 13 µM

## Nc1nc(O)c2ncn(COC(CO)CO)c2n1 [Ganciclovir, reference compound]
HCMV, strain AD169; [6]
  pEC50: 6.46
HCMV, strain AD169
  pEC50: 6.52
In vitro; [7]
  CC50: > 150 µM

## N.N.N.N.N.N.[Cl-].[Cl-].[Cl-].[Co+3] [Hexaamminecobalt(III) chloride]
DNA [3]; 2-100 mM
  DNA condensed to (internal experimental observations): 28 Å
DNA [4]
  dint (DNA condensation observed experimentally): 27.8-28.2 Å

## [Cl-].[Cl-].[Mg+2] [MgCl2]
Phage λ; 5 mM MgCl2 Tris-buffer
  DNA transition temperature T*: ~22 °C
Phage λ; 20 mM MgCl2 Tris-buffer
  DNA transition temperature T*: ~37 °C
Phage λ; 50 mM MgCl2 Tris-buffer
  DNA transition temperature T*: ~35 °C

## Cl.Cl.Cl.NCCCCNCCCN [Spermidine trihydrochloride]
DNA [4]
  dint (DNA condensation observed experimentally): 28.8-29.7 Å

## Cl.Cl.Cl.Cl.NCCCNCCCCNCCCN [spermine tetrahydrochloride]
Phage λ; WT DNA length phage λ, 10 mM MgCl2 Tris-buffer, 1 mM spermine (4+), 20-40° C.
  intracapsid DNA transition (DNA diffraction peak area vs temperature): no abrupt DNA transition is observed
DNA [3]; 0.5-100 mM
  dint, internal experimental observations: 28.2-29.4 Å
DNA [4]
  dint (DNA condensation observed experimentally): 28 Å

## Arg4+: poly-L-arginine peptide (SEQ ID NO: 21), Charge=+4 (RRRR; Synthetic Arg4+)
DNA [3]; 1-2.5 mM
  dint, internal observations: 29.7-30.3 Å
DNA [4]
  dint (DNA condensation observed experimentally): 29.8 Å

## Tetralysine (KKKK; Synthetic Lys4+)
DNA [4]
  dint (DNA condensation observed experimentally): 34.9 Å

## Tetraornithine
DNA [4]
  dint (DNA condensation observed experimentally): 32.2 Å

## Trilysine
DNA [4]
  dint (DNA condensation observed experimentally): 38.9 Å

## Triornithine
DNA [4]
  dint (DNA condensation observed experimentally): 35.6 Å
